Measurements taken from patent US12570704B2, “Functionally modified maytansinoids and compositions and methods of use thereof” (University of Georgia Research Foundation, Inc., priority 2019, dated 2026).
pIC50: −log10 of the molar value. Non-standard residues stand in square brackets, D forms with d. Residues, ends and D or L forms follow the SMILES beside them. ξ: configuration not given here. ξGly(4-Pip(1-amidino)) = N=C(N)N1CCC(C(N)C(=O)O)CC1; ξGly(piperidin-4-yl) = NC(C(=O)O)C1CCNCC1; ξTle = CC(C)(C)C(N)C(=O)O; ξP = O=C(O)C1CCCN1; ξC = NC(CS)C(=O)O

Columns and labels:
H1299 cells [1] = test: Cell cycle arrest, PI staining and flow cytometry; type: cell-based, human; conditions: 20 nM, 24 h; PBS control 17.5%
Procedure: H1299 cells were seeded onto 6-well plates at a density of 2×10^5 cells per well and cultured overnight. The cells were then incubated with 20 nM of free drugs (DM1 and DM1-NO) or drug loaded nanoparticles (DM1-NPs and DM1-NO-NPs) for 24 h, and were then harvested and washed with ice-cold phosphate-buffered saline (PBS) and fixed with cold 70% (vol/vol) ethanol overnight at 4° C. The resulting cells were resuspended in PBS (1×) buffer containing a final concentration of 20 μg/mL RNase A and 20 μg/mL propidium iodide (eBioscience, Invitrogen, USA) for 15 min. The cell cycle profiles were determined using flow cytometry (HyperCyAn, Beckman USA) and analyzed using CellQuest software.

H1299 cells [2] = test: MTT cell viability assay, 72 h, without RT; type: cell-based, human
Procedure: The viability of the H1299 cells after different treatments was measured by (4,5-dimethythiazon-2-yl)-2,5-diphenyl tetrazolium bromide (MTT) assay using an Infinite M200 microplate reader (BioTek's Synergy™ Mx, USA). Around 3×10^3 cells per well were seeded into a 96-well plate and cultured overnight until the cells fully adhered to the bottom of the plate. The cells were treated with different treatment groups, including free drugs (DM1 and DM1-NO), and drug loaded nanoparticles (DM1-NPs and DM1-NO-NPs) for 72 h. […] After that MTT reagent (in 20 μL PBS, 5 mg/mL) was added to each well. The cells were further incubated for 4 h at 37° C. The medium in each well was then removed and replaced by 100 μL DMSO. The plate was gently shake for 5 min (instrument setup) to dissolve the formazan crystals, and the absorbance at 570 nm was recorded by a microplate reader. Each experiment condition was run three times and the data were shown as the mean value plus a standard deviation (±SD).

H1299 cells [3] = test: MTT cell viability assay, 72 h, in the presence of RT; type: cell-based, human; conditions: with RT
Procedure: FIGS. 7A-7E are plots showing the results of a cell cycle analysis, based on PI staining and assessed by flow cytometry. H1299 cells were incubated with PBS (7A), DM1 (7B), DM1-NO (7C), DM1-NPs (7D), or DM1-NO-NPs (20 nM, DM1 concentration) (7E) before analysis. […] FIG. 7G is a bar graphs showing Percentage of tubulin inhibition. Tubulin polymer was collected by centrifugation (35000×g for 1 h at 30° C.) and the amount of tubulin protein sediment was quantified by measuring protein concentration. ***, P<0.001. FIG. 7H is a line graph showing cell viability, tested with H1299 cells using 72-h MTT in the presence of RT. DM1, DM1-NO, and DM1-NO-NPs were studied.
The viability of the H1299 cells after different treatments was measured by (4,5-dimethythiazon-2-yl)-2,5-diphenyl tetrazolium bromide (MTT) assay using an Infinite M200 microplate reader (BioTek's Synergy™ Mx, USA). Around 3×10^3 cells per well were seeded into a 96-well plate and cultured overnight until the cells fully adhered to the bottom of the plate. The cells were treated with different treatment groups, including free drugs (DM1 and DM1-NO), and drug loaded nanoparticles (DM1-NPs and DM1-NO-NPs) for 72 h. […] The plate was gently shake for 5 min (instrument setup) to dissolve the formazan crystals, and the absorbance at 570 nm was recorded by a microplate reader. […]

H1299 cells [4] = test: Clonogenic assay with X-ray irradiation, linear-quadratic model; type: cell-based, human; conditions: 20 nM, 12 h, X-rays 0-10 Gy
Procedure: Around 3×10^5 of H1299 cells were plated in a series of 25 mm petri dishes in 5 mL of complete RMPI-1640 medium, and the cells were incubated for 24 h at 37° C. Once the cells were completely adhered to the bottom of the plate, the media was replaced with fresh RPMI-1640 containing DM1 or DM1-NO with a final concentration of 20 nM. After another 12 h of incubation, the cell cultures were irradiated by X-rays (320 kV) of different doses Immediately following the X-ray irradiation, the cell monolayers were trypsinized using 0.05% Trypsin/EDTA (Gibco, Life Technologies, USA). Single cells were collected and plated onto a 25 mm petri dish in 5 mL complete media (FIG. 1K). Each dish was then incubated for 21 days to allow colonies to form. After that, the media was removed and 0.5% crystal violet in 70% methanol was used to fixed and stain the existing colonies. The plates were sufficiently and carefully rinsed, and were dried at room temperature. Once dried, the colonies were counted manually under a microscope. When observed under the microscope, colonies of […] were said to be surviving colonies. The survival rate of these colonies was normalized to the plating efficiency of the untreated control cells. The mean and standard deviation of surviving colonies in each treatment group was calculated.
The potential of DM1-NO as a radiosensitizer was assessed by clonogenic assays. Briefly, DM1 or DM1-NO was incubated with H1299 cells, the cells were irradiated with X-rays (0-10 Gy), and the resulting cells were seeded onto a petri dish (FIG. 1K). Colonies consisting more than 50 cells after 3 weeks were counted, and the data fit to a linear-quadratic model (Table 3).

[5] = In vivo toxicity study (hematology, blood biochemistry, liver tissue); parameters: species or system balb/c mice; conditions: 260.8 nmol/kg i.v., Day 10
Procedure: Six-week old female albino BALB/c mice were purchased from Charles River Laboratories, USA. The animals were divided into control and experimental groups (n=3) and marked to permit individual identification. A similar dose (260.8 nmol/kg) of DM1-NO-NPs as used in therapeutic study was administered intravenously and the mice were examined for 10 days to observations for abnormal sign of toxicity such as change in behavioral, dizziness, respiratory distress or mortality were conducted until the end of the study. To further evaluate the hepatic function, alanine aminotransferase (ALT) and aspartate aminotransferase (AST) activities were measured and blood chemistry analysis was performed by using 20 μL blood serum sample form • each treated animal to assess the following: white blood cells (WBC), red blood cells (RBC), and platelets (PLT), plateletcrit, (PCT, mean platelet volume or platelet distribution width) and also corresponding sets of electrolytes (sodium, potassium, chloride, bicarbonate, sugar (glucose) calcium, inorganic phosphate, and magnesium, lipids (cholesterol), albumin, and total protein levels were also analyzed. Histological Analysis: […]

NTSR1 = NTSR1 (Homo sapiens, UniProt P30989); conditions: compared to wildtype NTS; cited from earlier work
[6] = compared to wildtype NTS; cited from earlier work

Chain of NTSR1 (P30989 whole entry): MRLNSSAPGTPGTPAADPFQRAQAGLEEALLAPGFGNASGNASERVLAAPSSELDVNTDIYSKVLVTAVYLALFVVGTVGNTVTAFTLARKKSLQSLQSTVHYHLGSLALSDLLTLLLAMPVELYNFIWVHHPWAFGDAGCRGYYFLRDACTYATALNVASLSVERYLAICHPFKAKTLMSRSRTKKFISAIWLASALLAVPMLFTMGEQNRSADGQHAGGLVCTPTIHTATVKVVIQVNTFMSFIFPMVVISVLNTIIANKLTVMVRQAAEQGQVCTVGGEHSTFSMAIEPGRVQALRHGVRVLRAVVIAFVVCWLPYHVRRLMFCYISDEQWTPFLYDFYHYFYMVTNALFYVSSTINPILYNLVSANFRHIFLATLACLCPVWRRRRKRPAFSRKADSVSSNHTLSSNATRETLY

SMILES	portion of cells in the G2/M phase (H1299 cells [1]) [%]	pIC50 (H1299 cells [2])	pIC50 (H1299 cells [3])	D10 (radiation dose at 10% fractional survival) (H1299 cells [4]) [Gy]	α (linear quadratic model best fit value) (H1299 cells [4])	β (linear quadratic model best fit value) (H1299 cells [4])	complete blood count: WBC, RBC, PLT, PCT levels [5]	avidity to NTSR1 (NTSR1)	biological stability [6]
COc1cc2cc(c1Cl)N(C)C(=O)C[C@H](OC(=O)[C@H](C)N(C)C(=O)CCS)[C@]1(C)O[C@H]1[C@H](C)[C@@H]1C[C@@](O)(NC(=O)O1)[C@H](OC)/C=C/C=C(\C)C2 [DM1, Mertansine, reference compound]	85.3	7.70	7.76	4.89	0.0729	0.0033	in the normal range		
CC(C)C[C@H](NC(=O)C(NC(=O)[C@H](Cc1ccc(O)cc1)NC(=O)C1CCCN1C(=O)[C@H](CCCNC(=N)N)NC(=O)C(NC(=O)C1CCCN1C(=O)C(NC(=O)C(N)CS)C1CCNCC1)C1CCN(C(=N)N)CC1)C(C)(C)C)C(=O)O (stereo partly drawn) [NTSmut] (H-[ξC][ξGly(piperidin-4-yl)][ξP][ξGly(4-Pip(1-amidino))]R[ξP]Y[ξTle]L-OH)								comparable, nanomolar avidity	much greater biological stability
